Tests used:
HCV replicon = settings: cited from earlier work
HepG2 AD38 cell line = assay: Cytotoxicity (viability, CC50) reported with the anti-HBV test; assay type: cell-based; settings: for viability, %: concentration not given
HBV = assay: Anti-HBV activity in the AD-38 cell line using real-time quantitative PCR; assay type: cell-based; settings: against HBV; for EC50: AD-38 cells, 4 days, read-out: EC50; for inhibition, %: concentration not given
Description: Anti-HBV activity of prodrugs of general formula 1 determination in the AD-38 cell line using a real-time quanitative PCR. a) Cell cultures. HepG2 AD38 cell line, harboring an integrated over-the-length HBV genomic DNA (Lander S, et. al, Antimicrobal Agents and Chemotherapy, 1997, pg. 1715-1720) were provided by Dr. C. Seeger, Fox Chase Cancer Center, Philadelphia, Pa.). Cells were grown in complete media (DMEM/F12 with 2 mM L-Glutamine (Thermo Scientific, Cat #11320033), 10% Fetal Bovine Serum (ThermoFisher Scientific, Cat#), 1% Antibiotic-antimitotic solution (ThermoFisher Scientific, Cat#15240096), and 0.3 μg/ml tetracyclin (Sigma, Cat # T7660-5G). Cells were plated onto Corning Biocoat 96-well plates (Corning, Cat #356407) in 225 ul of complete media (without teracyclin), 20000 cells/well. The prodrugs of general formula 1 were dissolved first in DMSO (Sigma cat. D2650), then in DMEM/F12 and 9 serial 3× dilutions were prepared and added to cells in 22.5 μl. The final prodrugs concentrations ranged from 10 μM to 1 nM. Cells grown in the presence of tetracyclin were used as a positive control, as HBV replication in this cell line is turned off by thetracyclin. Cell plates were incubated for 4 days at 37 C, 5% CO2. b) HBV DNA isolation. After 4 days, viral DNA was isolated from culture supernatants using PureLink® Pro 96 Genomic DNA Purification Kit (ThermoFisher Scientific, Cat # K183104A), according to manufacturer's recommendations. Eluted DNA samples were stored at −20 C. c) Quantitative real-time PCR (qPCR). PCR was performed on the CFX96™ Real-Time System (Bio-Rad, Hercules, Calif.) using AmpliTaq Gold® DNA Polymerase (Applied Biosystems®).
Ct values (cycle threshold) were obtained for each prodrug sample and normalized to untreated cells, according to formula E=(1/(1+100%))̂(Ct[studied prodrug sample]−Ct[K-]), where E is a normalized expression of studied gene, Ct[K-] and Ct[studied prodrug sample] are Ct values of untreated cells and studied prodrug sample. Inhibition curves were obtained and EC50 values were calculated using the Graph Prizm software (Table 3).

Row | SMILES | EC50 (HCV replicon) | CC50 (HepG2 AD38 cell line) | viability, % (HepG2 AD38 cell line) | EC50 (HBV) | inhibition, % (HBV) | EC90 (HCV replicon; replicon assay) | increase in potency compared to the guanosine analogue (HCV replicon; versus β-D-2′-deoxy-2′-R-fluoro-2′-β-C-methylguanosine)
1 | CC(C)(CO)C(=O)SCCOP(=O)(COC[C@H]1OC(n2cnc3c(=O)[nH]c(N)nc32)[C@](C)(O)[C@@H]1O)NCc1ccccc1 (stereo partly drawn) [IDX-184] | 400 nM | – | – | – | – | – | –
2 | CC(C)OC(=O)[C@H](C)OC(=O)[C@H](C)N[P@](=O)(OC[C@@H]1O[C@H](n2cc(F)c(N)nc2=O)CS1)Oc1ccccc1 [1.2(93), (S)-1-isopropoxycarbonyl-ethyl (S)-2-{(S)-[(2R,5S)-5-(4-amino-5-fluoro-2-oxo-2H-pyrimidin-1-yl)-[1,3]oxathiolan-2-ylmethoxy]-phenoxy-phosphorylamino}-propanoate] | – | > 30000 nM | 94% | 40 ± 10 nM | 93% | – | –
3 | C=C1[C@H](CO[P@@](=O)(N[C@@H](C)C(=O)O[C@@H](C)C(=O)OC(C)C)Oc2ccccc2)[C@@H](O)C[C@@H]1n1cnc2c(=O)[nH]c(N)nc21 [1.2(50), (S)-1-isopropoxycarbonyl-ethyl (S)-2-{(S)-[(1R,3S,5S)-3-(2-amino-6-oxo-1,6-dihydro-purin-9-yl)-5-hydroxy-2-methylene-cyclopentylmethoxy]-phenoxy-phosphorylamino}-propanoate] | – | > 30000 nM | 95% | 40 ± 30 nM | 100% | – | –
4 | COc1nc(N)nc2c1ncn2[C@@H]1O[C@H](COP(=O)(N[C@@H](C)C(=O)OC(C)C)Oc2ccccc2)[C@@H](O)[C@@]1(C)F (stereo partly drawn) [PSI-353661] | – | – | – | – | – | 8 nM | > 1000 fold
5 | C=CCOC(=O)[C@H](C)N[P@](=O)(OC[C@@H]1O[C@H](n2ccc(=O)[nH]c2=O)CS1)Oc1ccccc1 [1.2(94), allyl (S)-2-{(S)-[(2R,5S)-5-(2,4-dioxo-3,4-dihydro-2H-pyrimidin-1-yl)-[1,3]oxathiolan-2-ylmethoxy]-phenoxy-phosphorylamino}-propanoate] | – | > 30000 nM | 101% | 300 ± 90 nM | 99% | – | –
6 | CC(C)OC(=O)[C@H](C)OC(=O)[C@H](C)N[P@](=O)(OC[C@@H]1O[C@H](n2ccc(N)nc2=O)CS1)Oc1ccccc1 [1.2(92), (S)-1-isopropoxycarbonyl-ethyl (S)-2-{(S)-[(2R,5S)-5-(4-amino-2-oxo-2H-pyrimidin-1-yl)-[1,3]oxathiolan-2-ylmethoxy]-phenoxy-phosphorylamino}-propanoate] | – | > 30000 nM | 103% | 800 ± 610 nM | 86% | – | –
7 | COCCOC(=O)[C@H](C)N[P@](=O)(OC[C@@H]1O[C@H](n2ccc(=O)[nH]c2=O)CS1)Oc1ccccc1 [1.2(96), 2-methoxy-ethyl (S)-2-{(S)-[(2R,5S)-5-(2,4-dioxo-3,4-dihydro-2H-pyrimidin-1-yl)-[1,3]oxathiolan-2-ylmethoxy]-phenoxy-phosphorylamino}-propanoate] | – | > 30000 nM | 89% | 320 ± 80 nM | 96% | – | –
8 | C=CCOC(=O)[C@H](C)N[P@](=O)(OC[C@@H]1O[C@H](n2cc(F)c(=O)[nH]c2=O)CS1)Oc1ccccc1 [1.2(97), allyl (S)-2-{(S)-[(2R,5S)-5-(5-fluoro-2,4-dioxo-3,4-dihydro-2H-pyrimidin-1-yl)-[1,3]oxathiolan-2-ylmethoxy]-phenoxy-phosphorylamino}-propanoate] | – | > 30000 nM | 91% | 370 ± 50 nM | 99% | – | –
